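Exposure lasted 48 hours, with cells grown in 96-well plates and compounds tested at five concentrations. GI50: concentration for 50% inhibition of growth. Definition used: TGI = concentration required for complete inhibition of growth.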
Legend:
Test in all cases: NCI anticancer screen, dose series, 48 h
[1] = test system: A549 NSCLC
[2] = test system: UACC-62 melanoma
[3] = test system: HT29 colon
[4] = test system: NCI-H226 lung
[5] = test system: OVCAR-3 ovarian
[6] = test system: OVCAR-4 ovarian
[7] = test system: MALME-3M melanoma
[8] = test system: SR leukemia
[9] = test system: IGROV1 ovarian
[10] = test system: HCT-116 colon

Question: For `CS[C@]12C(=O)C[C@@]3(C)[C@@H](CC[C@]3(O)C(=O)CO)[C@@H]1CCC1=CC(=O)CC[C@@]12C`, which TGI [1] is on record?
Answer: > 100 µM

Question: And the TGI [2]?
Answer: > 100 µM

Question: What about the TGI [3] of the same molecule?
Answer: > 100 µM

Question: And the TGI [4]?
Answer: > 100 µM

Question: And the TGI [5]?
Answer: > 100 µM

Question: And the TGI [6]?
Answer: > 100 µM

Question: What about the TGI [7] of the same molecule?
Answer: > 100 µM

Question: What about the TGI [8] of the same molecule?
Answer: > 100 µM

Question: What about the TGI [9] of the same molecule?
Answer: > 100 µM

Question: And the TGI [10]?
Answer: > 100 µM

Question: Which results are given for `C=C1C(=O)OC2/C=C(/C)C(OC(C)=O)CC(O)/C(C)=C\C(OC(=O)/C(C)=C\C)C12` (stereo not drawn)?
Answer: TGI [1]: > 100 µM; TGI [2]: > 100 µM; TGI [3]: > 100 µM; TGI [4]: > 100 µM; TGI [5]: > 100 µM; TGI [6]: > 100 µM; TGI [7]: 30.9 µM; TGI [8]: > 100 µM; TGI [9]: > 100 µM; TGI [10]: 35.6 µM

Question: With `Cn1cc(C2=C(c3cccc(OCC(O)CO)c3)C(=O)NC2=O)c2ccccc21` (stereo not drawn) as the molecule, how does the GI50 [1] read?
Answer: > 25 µM

Question: What about the TGI [1] of the same molecule?
Answer: > 25 µM

Question: And the GI50 [2]?
Answer: > 25 µM

Question: What about the TGI [2] of the same molecule?
Answer: > 25 µM

Question: What about the GI50 [3] of the same molecule?
Answer: > 25 µM

Question: What about the TGI [3] of the same molecule?
Answer: > 25 µM

Question: And the GI50 [4]?
Answer: > 25 µM

Question: What about the TGI [4] of the same molecule?
Answer: > 25 µM

Question: What about the GI50 [5] of the same molecule?
Answer: > 25 µM

Question: What about the TGI [5] of the same molecule?
Answer: > 25 µM

Question: What about the GI50 [6] of the same molecule?
Answer: > 25 µM

Question: What about the TGI [6] of the same molecule?
Answer: > 25 µM

Question: What about the GI50 [7] of the same molecule?
Answer: > 25 µM

Question: And the TGI [7]?
Answer: > 25 µM

Question: What about the GI50 [8] of the same molecule?
Answer: > 25 µM

Question: And the TGI [8]?
Answer: > 25 µM

Question: What about the GI50 [9] of the same molecule?
Answer: > 25 µM

Question: What about the TGI [9] of the same molecule?
Answer: > 25 µM

Question: And the GI50 [10]?
Answer: > 25 µM

Question: And the TGI [10]?
Answer: > 25 µM

Question: Which results are given for `C1CN(SSN2CCOCC2)CCO1`?
Answer: GI50 [1]: 78.6 µM; TGI [1]: > 100 µM; GI50 [2]: 58.7 µM; TGI [2]: > 100 µM; GI50 [3]: 19.9 µM; TGI [3]: 43.1 µM; GI50 [4]: > 100 µM; TGI [4]: > 100 µM; GI50 [5]: 32.3 µM; TGI [5]: 89.2 µM; GI50 [6]: 39.6 µM; TGI [6]: > 100 µM; GI50 [7]: 53.6 µM; TGI [7]: > 100 µM; GI50 [8]: 48.9 µM; TGI [8]: > 100 µM; GI50 [9]: 70.7 µM; TGI [9]: > 100 µM; GI50 [10]: 20 µM; TGI [10]: 40.6 µM

Question: Which TGI [1] does the source give for `Cc1cccc(C(C)C)c1NC(=O)CC1C(=O)Nc2ccccc2S1(=O)=O` (stereo not drawn) here?
Answer: 39.3 µM

Question: And the TGI [2]?
Answer: > 51.1 µM

Question: What about the TGI [3] of the same molecule?
Answer: 26.8 µM

Question: And the TGI [4]?
Answer: 49.9 µM

Question: And the TGI [5]?
Answer: 38.5 µM

Question: And the TGI [6]?
Answer: 29 µM

Question: What about the TGI [7] of the same molecule?
Answer: 50.9 µM

Question: And the TGI [8]?
Answer: 4.32 µM

Question: What about the TGI [9] of the same molecule?
Answer: > 51 µM

Question: And the TGI [10]?
Answer: > 46.9 µM

Question: For `CC(C)(O)CC(=O)NCCn1ccc2ncnc(Nc3ccc(Oc4cccc(C(F)(F)F)c4)c(Cl)c3)c21`, which GI50 [1] is on record?
Answer: 3.05 µM

Question: And the TGI [1]?
Answer: > 10 µM

Question: And the GI50 [2]?
Answer: 2.96 µM

Question: What about the TGI [2] of the same molecule?
Answer: > 10 µM

Question: And the GI50 [3]?
Answer: 3.83 µM

Question: What about the TGI [3] of the same molecule?
Answer: > 10 µM

Question: What about the GI50 [4] of the same molecule?
Answer: 3.19 µM

Question: What about the TGI [4] of the same molecule?
Answer: > 10 µM

Question: What about the GI50 [5] of the same molecule?
Answer: 2.42 µM

Question: What about the TGI [5] of the same molecule?
Answer: > 10 µM

Question: What about the GI50 [6] of the same molecule?
Answer: 5.22 µM

Question: What about the TGI [6] of the same molecule?
Answer: > 10 µM

Question: What about the TGI [7] of the same molecule?
Answer: > 10 µM

Question: What about the GI50 [8] of the same molecule?
Answer: 2.14 µM

Question: What about the TGI [8] of the same molecule?
Answer: > 10 µM

Question: And the GI50 [9]?
Answer: 1.26 µM

Question: What about the TGI [9] of the same molecule?
Answer: > 10 µM

Question: And the GI50 [10]?
Answer: 2.92 µM

Question: What about the TGI [10] of the same molecule?
Answer: > 10 µM

Question: Which results are given for `COc1ccc(/C=C2\CCCC3=C2NC(N)=NC3c2ccc(OC)c(OC)c2)cc1OC` (stereo not drawn)?
Answer: GI50 [1]: 33.2 µM; TGI [1]: > 100 µM; GI50 [2]: 10.9 µM; TGI [2]: > 100 µM; GI50 [3]: 7.75 µM; TGI [3]: > 100 µM; GI50 [4]: 3.02 µM; TGI [4]: 20.2 µM; GI50 [5]: 5.41 µM; TGI [5]: > 100 µM; GI50 [6]: 5.2 µM; TGI [6]: > 100 µM; GI50 [7]: 23.7 µM; TGI [7]: > 70.2 µM; GI50 [8]: 0.915 µM; TGI [8]: 22.6 µM; GI50 [9]: 28.9 µM; TGI [9]: > 100 µM; GI50 [10]: 1.28 µM; TGI [10]: 8.64 µM

Question: Which GI50 [1] does the source give for `CN(C)c1ccc2c(c1)OC(N)=C(C#N)C2c1ccc2c(c1)CCO2` (stereo not drawn) here?
Answer: 0.198 µM

Question: And the TGI [1]?
Answer: > 100 µM

Question: And the GI50 [2]?
Answer: < 0.0205 µM

Question: What about the TGI [2] of the same molecule?
Answer: 21.9 µM

Question: What about the GI50 [3] of the same molecule?
Answer: 0.321 µM

Question: And the GI50 [4]?
Answer: 2.38 µM

Question: What about the TGI [4] of the same molecule?
Answer: > 62.4 µM

Question: And the GI50 [5]?
Answer: < 0.0213 µM

Question: What about the TGI [5] of the same molecule?
Answer: 1.88 µM

Question: And the GI50 [6]?
Answer: 0.704 µM

Question: What about the TGI [6] of the same molecule?
Answer: > 100 µM

Question: And the GI50 [7]?
Answer: 14.9 µM

Question: And the TGI [7]?
Answer: 59.7 µM

Question: What about the GI50 [8] of the same molecule?
Answer: < 0.0198 µM

Question: And the TGI [8]?
Answer: > 48.2 µM

Question: And the GI50 [9]?
Answer: 0.326 µM

Question: And the TGI [9]?
Answer: > 100 µM

Question: What about the GI50 [10] of the same molecule?
Answer: < 0.0201 µM

Question: And the TGI [10]?
Answer: 8.52 µM

Question: With `CC(C)c1cccc2sc(NC(=O)C(=O)C(C#N)c3cccc4ccccc34)nc12` (stereo not drawn) as the molecule, how does the TGI [1] read?
Answer: > 100 µM

Question: And the TGI [2]?
Answer: > 100 µM

Question: What about the TGI [3] of the same molecule?
Answer: > 100 µM

Question: And the TGI [4]?
Answer: > 100 µM

Question: What about the TGI [5] of the same molecule?
Answer: > 100 µM

Question: What about the TGI [6] of the same molecule?
Answer: > 100 µM

Question: And the TGI [7]?
Answer: > 100 µM

Question: And the TGI [8]?
Answer: > 100 µM

Question: What about the TGI [9] of the same molecule?
Answer: > 100 µM

Question: What about the TGI [10] of the same molecule?
Answer: > 100 µM

Question: With `O=C(COc1ccc(/C=C2\Oc3ccccc3C2=O)cc1)Nc1nc2c(s1)CCCC2` as the molecule, how does the GI50 [1] read?
Answer: 3.09 µM

Question: And the TGI [1]?
Answer: 33 µM

Question: And the GI50 [2]?
Answer: 23.2 µM

Question: What about the TGI [2] of the same molecule?
Answer: > 100 µM

Question: What about the GI50 [3] of the same molecule?
Answer: 3.21 µM

Question: And the TGI [3]?
Answer: > 39.4 µM

Question: And the GI50 [4]?
Answer: 8.55 µM

Question: What about the TGI [4] of the same molecule?
Answer: 42 µM

Question: And the GI50 [5]?
Answer: 1.83 µM

Question: And the TGI [5]?
Answer: 25.5 µM

Question: What about the GI50 [6] of the same molecule?
Answer: 13.1 µM

Question: What about the TGI [6] of the same molecule?
Answer: > 100 µM

Question: And the GI50 [7]?
Answer: 1.25 µM

Question: What about the TGI [7] of the same molecule?
Answer: > 78.5 µM

Question: What about the GI50 [8] of the same molecule?
Answer: 0.59 µM

Question: And the TGI [8]?
Answer: 2.44 µM

Question: And the GI50 [9]?
Answer: 0.0164 µM

Question: And the TGI [9]?
Answer: 0.0361 µM

Question: What about the GI50 [10] of the same molecule?
Answer: 9.94 µM

Question: What about the TGI [10] of the same molecule?
Answer: > 100 µM

Question: For `O=S1(=O)OCCOS(=O)(=O)C1Cc1ccccc1`, which TGI [1] is on record?
Answer: > 100 µM

Question: What about the TGI [2] of the same molecule?
Answer: > 100 µM

Question: And the TGI [3]?
Answer: > 100 µM

Question: And the TGI [4]?
Answer: > 100 µM

Question: And the TGI [5]?
Answer: 44.9 µM

Question: And the TGI [6]?
Answer: > 100 µM

Question: And the TGI [7]?
Answer: > 100 µM

Question: And the TGI [8]?
Answer: > 100 µM

Question: What about the TGI [9] of the same molecule?
Answer: 93.3 µM

Question: And the TGI [10]?
Answer: > 100 µM

Question: How did the GI50 [1] turn out when `Cc1c2c(nn1C)CSCc1cc(n(C)n1)CSc1cc(c3ccccc3c1)OCCCc1c(C(=O)O)n(C)c3c-2c(Cl)ccc13` was run?
Answer: 4.38 µM

Question: And the TGI [1]?
Answer: 15.6 µM

Question: What about the GI50 [2] of the same molecule?
Answer: 0.456 µM

Question: What about the TGI [2] of the same molecule?
Answer: 2.35 µM

Question: And the GI50 [3]?
Answer: 3.32 µM

Question: What about the TGI [3] of the same molecule?
Answer: 12.6 µM

Question: And the GI50 [4]?
Answer: 4.4 µM

Question: What about the TGI [4] of the same molecule?
Answer: 23.2 µM

Question: And the GI50 [5]?
Answer: 2.7 µM

Question: And the TGI [5]?
Answer: 6.82 µM

Question: What about the GI50 [6] of the same molecule?
Answer: 6.76 µM

Question: And the TGI [6]?
Answer: 22.9 µM

Question: What about the GI50 [7] of the same molecule?
Answer: 2.84 µM

Question: And the TGI [7]?
Answer: 9.87 µM

Question: What about the GI50 [8] of the same molecule?
Answer: 0.47 µM

Question: What about the TGI [8] of the same molecule?
Answer: 7.25 µM

Question: What about the GI50 [9] of the same molecule?
Answer: 3.99 µM

Question: And the TGI [9]?
Answer: 14.5 µM

Question: And the GI50 [10]?
Answer: 3.53 µM

Question: And the TGI [10]?
Answer: 13 µM

Question: What does the source list for `CCOC(=O)C(=Cc1cccnc1C)C(=O)OCC`?
Answer: TGI [1]: 51.3 µM; TGI [2]: 20.1 µM; TGI [3]: 18.4 µM; TGI [4]: 53.3 µM; TGI [5]: 8.67 µM; TGI [6]: 27.4 µM; TGI [7]: 26.8 µM; TGI [8]: 26.2 µM; TGI [9]: 25 µM; TGI [10]: 17.9 µM
